These results are taken from patent US5112833A, “1-azaindolizine derivatives, synthetic intermediates thereof and antiallergic agents containing 1-azaindolizine derivatives” (Zenyaku Kogyo Kabushiki Kaisha, priority 1988, dated 1992).

Counter-ions that a name gives are not always drawn.

The term LD50 denotes the dose at which mortality reaches 50%. The low end stands for greater toxicity, the high end for lower toxicity.

The first series deals with homologous passive cutaneous anaphylaxis (PCA) reaction. Description: Inhibition of homologous passive cutaneous anaphylaxis (PCA) reaction. As to conditions: Rattus norvegicus, 0.5 h; 20 mg/kg, intravenous, rats, immediately before ovalbumin challenge; *P < 0.02, **P < 0.005; read-out: Inhibition (%) of leaked amount of dye in PCA reaction. Type of series: in vivo, male Wistar rats. The protocol:
The antiallergic action of the compounds of the present invention obtained by the above-mentioned preparation process was examining by the following inhibition test of homologous passive cutaneous anaphylaxis (PCA) reaction on rats.
Antiserum was obtained from rats that were immunized with ovalbumin according to the method of Mota [Immunology, 7, 681-699 (1964)]. The antiserum was diluted with physiological saline to make PCA reaction of approximately 10-15 mm in diameter. Groups of 5 male Wistar rats, 8 weeks old and weighing between 200-250 g, were passively sensitized with 0.1 ml of the diluted antiserum injected intradermally in the shaved area on the back. Fourty-eight hours after the sensitization, each above sample dissolved into physiological saline was injected into the rats intravenously via tail vein. Immediately after injection of the sample, rats were challenged with the physiological saline solution containing ovalbumin (25 mg/kg/head) and Evans blue (12.5 mg/kg/head) intravenously via tail vein so as to generate PCA reaction. Thirty minutes after the accomplishment of the challenge, the rats were exsanguinated and removed the skins from the back. The amount of the dye leaked out of the vessels was measured by the method of Katayama et al. [Microbiol. Immunol. 22, 89-101 (1978)].
The effects of samples on PCA reaction were expressed as percentage of inhibition of the leaked amount of the dye calculated by the following equation: [formula] where C is the mean leaked amount of the dye in control group, S is the mean leaked amount of dye in sample treated group. The results of the experiments were shown in Table 1, which included the effect of DSCG used as a positive control.
Take `COc1nc2ccc(C)cn2c1C=C(C#N)C(=O)O` [Sample 1, Sodium salt of 3-(2-carboxy-2-cyanovinyl)-2-methoxy-6-methylimidazo[1,2-a]pyridine]: the inhibition in vivo at 20 mg/kg was 52.6%. As to `Cc1ccn2c(C=C(C#N)C(=O)O)c(OCC(C)C)nc2c1` [Sample 7, Sodium salt of 3-(2-carboxy-2-cyanovinyl)-2-isobutoxy-7-methylimidazo[1,2-a]pyridine], the inhibition in vivo at 20 mg/kg was 65.8%. As for `C=CCCOc1nc2c(C)cccn2c1C=C(C#N)C(=O)O` [Sample 12, Sodium salt of 2-(3-butenyloxy)-3-(2-carboxy-2-cyanovinyl)-8-methylimidazo[1,2-a]pyridine], the inhibition in vivo at 20 mg/kg came out at 68.9%. Turning to `COCCOc1nc2c(C)cccn2c1C=C(C#N)C(=O)O` [Sample 16, Sodium salt of 3-(2-carboxy-2-cyanovinyl)-2-(2-methoxyethoxy)-8-methylimidazo[1,2-a]pyridine], the inhibition in vivo at 20 mg/kg is 68.9%. Same read-out and setting: the value for `CC(=O)NCCCOc1nc2c(C)cccn2c1C=C(C#N)C(=O)O` [Sample 14, Sodium salt of 2-(3-acetylaminoproxy)-3-(2-carboxy-2-cyanovinyl)-8-methylimidazo[1,2-a]pyridine] was 74.8%.

Consider `CCC(C)Oc1nc2c(C)cccn2c1C=C(C#N)C(=O)O` (stereo not drawn) [Sample 8, Sodium salt of 3-(2-carboxy-2-cyanovinyl)-8-methyl-2-secbutoxyimidazo[1,2-a]pyridine], for which the inhibition in vivo at 20 mg/kg was determined as 80.4%. As to `Cc1cccn2c(C=C(C#N)C(=O)O)c(OC(C)C)nc12` [Sample 2, Sodium salt of 3-(2-carboxy-2-cyanovinyl)-2-isopropoxy-8-methylimidazo[1,2-a]pyridine], the inhibition in vivo at 20 mg/kg turned out to be 68.4%. Turning to `CCC(C)Oc1nc2c(OC(C)C)cccn2c1C=C(C#N)C(=O)O` (stereo not drawn) [Sample 10, Sodium salt of 3-(2-carboxy-2-cyanovinyl)-8-isopropoxy-2-secbutoxyimidazo[1,2-a]pyridine], the inhibition in vivo at 20 mg/kg stood at 92.5%. Consider `Cc1cccn2c(C=C(C#N)C(=O)O)c(OCC3CC3)nc12` [Sample 15, Sodium salt of 3-(2-carboxy-2-cyanovinyl)-2-cyclopropylmethoxy-8-methylimidazo[1,2-a]pyridine], for which the inhibition in vivo at 20 mg/kg worked out at 61.8%.

As for `CCOc1cccn2c(C=C(C#N)C(=O)O)c(OC(C)C)nc12` [Sample 4, Sodium salt of 3-(2-carboxy-2-cyanovinyl)-8-ethoxy-2-isopropoxyimidazo[1,2-a]pyridine], the inhibition in vivo at 20 mg/kg was found to be 85.4%.

As for `CCCCOc1nc2c(C)cccn2c1C=C(C#N)C(=O)O` [Sample 6, Sodium salt of 2-butoxy-3-(2-carboxy-2-cyanovinyl)-8-methylimidazo[1,2-a]pyridine], the inhibition in vivo at 20 mg/kg turned out to be 69.8%. Take `CCCCCCOc1nc2c(C)cccn2c1C=C(C#N)C(=O)O` [Sample 11, Sodium salt of 3-(2-carboxy-2-cyanovinyl)-2-hexyloxy-8-methylimidazo[1,2-a]pyridine]: the inhibition in vivo at 20 mg/kg is 75.7%. On the same count and under the same terms, the same measure for `CC(C)Oc1nc2c(OC(C)C)cccn2c1C=C(C#N)C(=O)O` [Sample 5, Sodium salt of 3-(2-carboxy-2-cyanovinyl)-2,8-diisopropoxyimidazo[1,2-a]pyridine]: 94.6%; for `COc1cccn2c(C=C(C#N)C(=O)O)c(OC(C)C)nc12` [Sample 3, Sodium salt of 3-(2-carboxy-2-cyanovinyl)-2-isopropoxy-8-methoxyimidazo[1,2-a]pyridine]: 90%.

With `Cc1cccn2c(C=C(C#N)C(=O)O)c(OCCCC#N)nc12` [Sample 17, Sodium salt of 3-(2-carboxy-2-cyanovinyl)-2-(3-cyanoproxy)-8-methylimidazo[1,2-a]pyridine], the inhibition in vivo at 20 mg/kg came to 71.3%. For the compound `CCOc1cccn2c(C=C(C#N)C(=O)O)c(OC(C)CC)nc12` (stereo not drawn) [Sample 9, Sodium salt of 3-(2-carboxy-2-cyanovinyl)-8-ethoxy-2-secbutoxyimidazo[1,2-a]pyridine], the inhibition in vivo at 20 mg/kg is 75.3%. `Cc1cccn2c(C=C(C#N)C(=O)O)c(OCCCO)nc12` [Sample 13, Sodium salt of 3-(2-carboxy-2-cyanovinyl)-2-(3-hydroxypropoxy)-8-methylimidazo[1,2-a]pyridine]: the inhibition in vivo at 20 mg/kg came out at 64.3%.

Staying with this series, now noted: Rattus norvegicus, iv, 0.5 h; 10 mg/kg, positive control, rats; **P < 0.005; read-out: Inhibition (%) of leaked amount of dye in PCA reaction.
On to `O=C(O)c1cc(=O)c2c(OCC(O)COc3cccc4oc(C(=O)O)cc(=O)c34)cccc2o1` [DSCG, disodium chromoglycate, reference compound], for which the inhibition in vivo at 10 mg/kg is 75%.

Tested on in the next series: not listed separately
Put plainly: Acute toxicity test (LD50). As to conditions: mouse, in vivo; intravenous via tail vein, male ICR mice, 10 days' observation. The protocol: Acute toxicity tests of the compounds of the present invention were carried out as described below. Groups of 5 male ICR mice, 5 weeks old and weighing 30±5 g, were used. The samples dissolved in physiological saline were injected intravenously via tail vein of the mice. Each LD50 was determined through 10 days' observation.
The compound `Cc1cccn2c(C=C(C#N)C(=O)O)c(OC(C)C)nc12` [Sample 2, Sodium salt of 3-(2-carboxy-2-cyanovinyl)-2-isopropoxy-8-methylimidazo[1,2-a]pyridine] came in with an LD50 at 240 h of around 150 mg/kg.

Consider `CC(C)Oc1nc2c(OC(C)C)cccn2c1C=C(C#N)C(=O)O` [Sample 5, Sodium salt of 3-(2-carboxy-2-cyanovinyl)-2,8-diisopropoxyimidazo[1,2-a]pyridine], for which the LD50 at 240 h was around 220 mg/kg. Consider `COc1cccn2c(C=C(C#N)C(=O)O)c(OC(C)C)nc12` [Sample 3, Sodium salt of 3-(2-carboxy-2-cyanovinyl)-2-isopropoxy-8-methoxyimidazo[1,2-a]pyridine], for which the LD50 at 240 h is around 350 mg/kg.
